Values of other authors as cited in patent publication US8623409B1, “Clonidine formulation” (Tris Pharma Inc., priority 2010, dated 2014).

Conditions: plasma level; see US patent application 2008/0152709

Structure (SMILES): Clc1cccc(Cl)c1NC1=NCCN1 [clonidine, N-(2,6-dichlorophenyl)-4,5-dihydro-1H-imidazol-2-amine]
- minimum effective dose for clonidine use as an anti-hypertensive agent: 200 pg/mL
